US20240209016A1, “FLUORESCENT NUCLEOSIDE PHOSPHATES” (STEALTH LABELS BIOTECH AB, priority 2021, published 2024)
Where “and” joins values, the source holds several entries; their conditions need not be identical. Equal values may be shown once.

What was measured:
[1] = Photophysical characterisation (absorption and emission spectra in DPBS); type: physicochemical; conditions: room temperature; for ε405, FBA χ ΦF: at 405 nm; for λem, max / ΦF: excitation 355 nm; for ΦF: relative to quinine sulphate
Protocol: Absorption spectra were recorded on a Cary 4000 spectrometer (Agilent Technologies). The emission spectra were measured on a SPEX Fluorolog 3 spectrofluorimeter (Jobin Yvon Horiba). Three consecutive emission spectra recorded at a scan rate of 600 nm min−1 were collected and averaged. The spectra of compounds 7 and 17 in DPBS were recorded from 360 nm to 695 nm with excitation at 355 nm. To avoid bleaching, the monochromator slits on the excitation side were set to 0.8 nm, and on the emission side to 2.5 nm.
The spectra of molar absorptivities (ε in M^−1cm^−1) were calculated using Equation 1, with A being the measured absorption, A260 and ε260 the absorption or molar absorptivity, respectively, at 260 nm.
The fluorescence quantum yields were determined relative to the quantum yield of quinine sulphate in 0.5 M H2SO4 (ϕF=0.546^42, referred to as reference), and calculated using Equation 2, in which subscripts s and r refer to sample and reference, respectively. I is the integrated fluorescence intensity, A the measured absorption of the fluorophore at the excitation wavelength and n is the refractive index of the solvent (H2O or H2SO4, respectively; Eaton D. F.; Pure Appl. Chem. 60, 1107-1114 [1988 ]).
The spectroscopic properties of compounds 7 and 17 were determined under physiological conditions in order to determine the experimental setup for cell studies, with absorption and emission spectra being recorded in DPBS to mimic the ionic strength and salt composition in mammalian cells. To record emission spectra, the excitation wavelength was set to 355 nm, and measurements were performed at room temperature (ca. 22° C.). Molar absorptivities (s) were then calculated using the Beer-Lambert law.

Huh-7 cells [2] = assay: Dose response of cell uptake, fluorescence in cell lysate; type: cell-based, human; conditions: 24 h exposure
Text: Quantification in Cell Lysate: For dose response experiments of the uptake of compounds 7 and 17, total cell lysates of the exposed cells were collected and measured on an Optima Blue Fluostar plate reader (BMG Labtech) with lysis buffer as background. 2CNqATP was excited using 355 nm (±20 nm) filter and emission was collected at through a bandpass filter centred at 460 nm (±12 nm). pATP was excited using 380 nm (±5 nm) filter and emission bandpass filter centred at 410 nm (±5 nm). Lysate buffer fluorescence was subtracted as background, and the fluorescence intensities of the triplicates were averaged. The fluorescence intensity was normalized to the highest added concentration of the compounds (10 μM).
Dose-response experiments were performed at one selected time point (24 h) in order to investigate the concentration dependency of cellular FBA-TP uptake. At the end of exposure, the cells were washed and lysed. The fluorescence of the compounds in the lysate, reflecting the internalized FBA, was measured using a plate reader. […] Compounds 7 and 17 show very different uptake characteristics. Cellular uptake of 2CNqATP increases dramatically with small increases in concentration and reaches a maximum, indicative of uptake saturation, already when 2.5 μM FBA-TP is added to the cells. By contrast, the increase of pATP emission between 0 and 2.5 μM is very small, only 4% of that of 2CNqATP, but when FBA-TP concentration is doubled it increases about 7 times. By adding 10 μM FBA-TP the fluorescence increases about 25 times, compared to 2.5 μM added compound.

Huh-7 cells [3] = assay: Cellular uptake and localisation by confocal fluorescence microscopy; type: cell-based, human; conditions: 2.5 μM
Text: Confocal Laser Scanning Fluorescence Microscopy: Images were captured using a Nikon eclipse Ti microscope with a Nikon C2plus scanner, two parallel Gallium arsenide phosphide (GaAsP) detectors, and an Apo 60x Oil μS DIC N2 objective. To excite the fluorescent nucleoside triphosphates the 405 nm laser line was used, and the emission was collected between 407-607 nm. To optimize the signal while avoiding photobleaching of the compounds a laser power of 2% and a detector gain of 4% was applied. For live cell imaging, Huh-7 cells were seeded in a four-compartment dish (CELLview Dishes, Greiner Bio-One) with glass bottom as described above. During imaging the dish was placed in a stage top incubation chamber (OKO lab) maintaining 37° C. and 5% CO2.
Time-lapse Imaging: To image the uptake of compounds 7 and 17 over time, the time-lapse setup of the NIS software was used. […]
Results: To explore the cellular uptake of compounds 7 and 17, they were added to Huh-7 cells in CCM and the uptake was monitored as function of time using a confocal fluorescence microscope (FIG. 4). Control cells, exposed to CCM alone, were imaged using the same microscopy settings and recorded as reference to probe for cellular autofluorescence levels. […]

Huh-7 cells [4] = assay: Lactate dehydrogenase (LDH) leakage assay (cell membrane integrity); conditions: all exposure conditions, 24 h; in parity with untreated control cells
Protocol: The Huh-7 human liver cell line was used. […] For sub-cultivation the adherent cells were washed twice with DPBS, containing no calcium or magnesium, and detached with 0.25% trypsin ethylenediaminetetraacetic acid 1x (trypsin-EDTA, Gibco, with phenol red). For seeding, the cells were counted after trypsin neutralization, diluted to the desired number of cells (Table 2) and thereafter incubated at 37° C. with 5% CO2 for 24 h before experiments.
Prior to treatment, the conditioned medium was removed from the Huh-7 cells, and the compounds (stock solution in DPBS diluted in CCM) were added to the cells for different exposure times. Unexposed cells were treated the same way, with the same amount of added DPBS to CCM, instead of the compounds. Two different cytotoxicity assays (alamarBlue to measure metabolic activity and LDH leakage to measure cell membrane integrity) were performed in parallel using the cells and the culture medium from each sample, respectively. Treatments were done in triplicates and the experiment was repeated twice.
Lactate Dehydrogenase (LDH) Leakage Assay: To test for released LDH, the CyQUANT LDH Cytotoxicity Assay kit (Invitrogen) was used. […] Maximum LDH release were determined by treating cells with a 1:10 dilution of lysis buffer in serum free medium for 30 min at 37° C. and 5% CO2.

Huh-7 cells [5] = assay: alamarBlue cell viability (metabolic activity) assay; type: cell-based; conditions: lower doses, 24 h exposure
Protocol: The Huh-7 human liver cell line was used.
After 24 h exposure with compounds 7 or 17, the conditioned medium was removed from the cells and used for the LDH leakage assay (see below). Freshly prepared alamarBlue cell viability reagent (Invitrogen, diluted 1:10 in CCM) was added, followed by incubation for 3 h at 37° C. and 5% CO2. The resulting resorufin fluorescence was read using an Optima Fluostar plate reader (BMG Labtech) Ex: 544 nm/Em: 590 nm. Dimethyl sulfoxide 5% and CCM alone (i.e. compounds 7 and 17 0 μM) were used as positive and negative controls for cell death, respectively.

Substance | absorption band peaks [1] | εmax, FBA χ ΦF [1] | λabs, max [1] | ε405, FBA χ ΦF [1] | λem, max [1] | ΦF [1] | fold increase of lysate fluorescence at 10 μM compared to 2.5 μM (Huh-7 cells [2]) | fold increase of lysate fluorescence when concentration is doubled from 2.5 μM (Huh-7 cells [2]) | increase of emission between 0 and 2.5 μM relative to that of 2CNqATP (Huh-7 cells [2]) | intracellular fluorescence following 20 h exposure (Huh-7 cells [3]) | level of released LDH (Huh-7 cells [4]) | added concentration at which uptake reaches maximum (saturation) (Huh-7 cells [2]) | comparison of cell viability at lower doses (Huh-7 cells [5])
((2R,3S,4R,5R)-5-(2,3,5,6-tetraazacyclopenta[de]tetracen-2(6H)-yl)-3,4-dihydroxytetrahydrofuran-2-yl)methyl hydrogen triphosphate [pATP] | 370 nm and 386 nm | 6000 M⁻¹ cm⁻¹ | 386 nm | 909 M⁻¹ cm⁻¹ | 420 nm | 49% | about 25 times | about 7 times | 4% | strong intracellular fluorescence |  |  | 
((2R,3S,4R,5R)-5-(8-cyano-2,3,5,6-tetraazaaceanthrylen-2(6H)-yl)-3,4-dihydroxytetrahydrofuran-2-yl)methyl hydrogen triphosphate [2CNqATP] |  | 4900 M⁻¹ cm⁻¹ | 352 nm | 504 M⁻¹ cm⁻¹ | 463 nm | 47% |  |  |  | strong intracellular fluorescence | about 10% | 2.5 µM | slightly more toxic than pATP
